Test results reported in patent publication US4343795A, “Biologically active amides” (priority 1977, dated 1982).
Structures can show the parent of a compound that is named as a salt. Non-standard residues stand in square brackets, D forms with d. Residues, ends and D or L forms follow the SMILES beside them. Phe(4-NO2) = N[C@@H](Cc1ccc([N+](=O)[O-])cc1)C(=O)O

Tests used:
guinea-pigs = assay: Anti-tussive testing, citric acid aerosol in guinea-pigs; assay type: in vivo; conditions: guinea-pig; for ANTITUSSIVE ED50 p.o.: 20% citric acid aerosol 30 minutes after compound
Protocol: J. Pharmacol., 39, (1970) 225.
(C) For anti-tussive testing, guinea-pigs are subjected to an aerosol containing 20% citric acid, 30 minutes after administration of compound (orally or subcutaneously). The number of coughs during a five minute exposure are counted and meaned for six animals per treatment. The method is that described by Boura, A. L. A., Green, A. F. and Saunders, I. A. Br. J. Pharmac., May 1970, Vol. 39, No. 1, page 225.
(§1) From the data obtained the respective ED50 figures were calculated (i.e. the dose required to elicit the appropriate effect in 50% of the animals). N.T.: not tested.

mice [1] = assay: Analgesia in mice in the hot plate test; assay type: in vivo; conditions: i.c.v.
Protocol: (A) Analgesia in mice in the hot plate test (modification of the method of Eddy, N. B. et al., J. Pharm. Exp. Therap. (1953) 107, 385, the peptide being administered by intracerebroventricular injection).
as §1

rat = assay: Antidiarrhoeal activity in the rat (castor oil); assay type: in vivo; conditions: for ANTIDARRHOEA ED50 p.o. / ANTIDARRHOEA ED50 s.c.: castor oil 15 minutes after peptide
Protocol: (B) Antidiarrhoeal activity in the rat. In this procedure rats were starved for 24 hours, the peptide then administered either subcutaneously or orally followed after 15 minutes by 1 ml. castor oil per rat given orally.
as §1

mice [2] = assay: Analgesia in mice in the writhing test; assay type: in vivo; conditions: mouse, p.o.
Excerpt: As a further example the compounds are effective in reducing acetic acid-induced writhing in mice when tested by a modification of the method of Henderson et. al., J. Pharm. Exp. Therap. 125 (1959), 237; the compounds being administered orally and this reduction in writhing is abolished by naloxone.
(D) Analgesia in mice in the writhing test (modification of the method of Henderson et. al. (J. Pharm. Exp. Therap., 125,(1959),237) the peptide being administered orally.
as §1

[3] = test system: laboratory animals including rats and mice; assay: Induction of anaesthesia / abolition of the righting reflex in laboratory animals; conditions: laboratory animals such as mice, up to lethal doses

Compound | ANTITUSSIVE ED50 p.o. (guinea-pigs) [mg/kg] | ANALGESIA: MOUSE HOT PLATE ED50 (mice [1]) [μg/mouse] | ANTIDARRHOEA ED50 p.o. (rat) [mg/kg] | ANTIDARRHOEA ED50 s.c. (rat) [mg/kg] | ANALGESIA: WRITHING ED50 (mice [2]) [mg/kg] | ANTITUSSIVE (ED50 column): activity at 10 p.o. (guinea-pigs; at 10 mg/kg p.o.) | ANTIDARRHOEA p.o. (ED50 column): activity at 10 (rat; at 10 mg/kg p.o.) | Abolition of the righting reflex [3]
CSCC[C@@H](NC(=O)[C@@H](N)Cc1ccc(O)cc1)C(=O)NCC(=O)N[C@@H](Cc1ccc([N+](=O)[O-])cc1)C(=O)N1CCC[C@H]1C(N)=O [Example 1, H.Tyr.D-Met.Gly.Phe(4NO2).Pro.NH2] (H-Y[dM]G[Phe(4-NO2)]P-NH2) | 0.7 | 0.007 | 2 | 0.05 | 35 | – | – | –
CSCC[C@@H](NC(=O)[C@@H](N)Cc1ccc(O)cc1)C(=O)NCC(=O)N[C@@H](Cc1ccccc1)C(=O)N1CCC[C@@H]1C(=O)O [Example 3, H.Tyr.D-Met.Gly.Phe.D-Pro.OH HCl] (H-Y[dM]GF[dP]-OH) | – | 0.005 | 7 | 2 | – | None | – | –
CSCC[C@@H](NC(=O)[C@@H](N)Cc1ccc(O)cc1)C(=O)NCC(=O)N[C@@H](Cc1ccc([N+](=O)[O-])cc1)C(=O)N1CCC[C@H]1C(=O)O [Example 4, H.Tyr.D-Met.Gly.Phe(4NO2).Pro.OH HCl] (H-Y[dM]G[Phe(4-NO2)]P-OH) | – | 0.07 | – | 0.2 | – | – | None | –
CN1CC[C@]23c4c5ccc(O)c4O[C@H]2[C@@H](O)C=C[C@H]3[C@H]1C5 [morphine] | – | – | – | – | – | – | – | does not abolish the righting reflex
H.Tyr.D-Met(O2).Gly.Phe(4NO2).Pro.NH2 [Example 7] | 3 | 0.00008 | 0.3 | 0.05 | – | – | – | –
H.Tyr.D-Met.Gly.Phe(4Cl).Pro.NH2 [Example 9] | – | 0.005 | 10 | 0.2 | – | – | – | –
Tyr.D-Met.Gly.Phe(4NO2).homoPro.NH2 [Example 21] | – | 0.003 | 2 | 0.03 | – | – | – | –
